Source: US5541168A, “Substituted 2-(phosphinyloxymethyl)-1,2,5-thiadiazolidin-3-one 1,1-dioxides and compositions and method of use thereof” (Sterling Winthrop Inc., priority 1994, dated 1996)
Like-named read-outs stand apart in the source and are kept apart here.

Target: T1, human leukocyte elastase (Homo sapiens, UniProt P08246)
T1 sequence (P08246 30-247 limits assumed): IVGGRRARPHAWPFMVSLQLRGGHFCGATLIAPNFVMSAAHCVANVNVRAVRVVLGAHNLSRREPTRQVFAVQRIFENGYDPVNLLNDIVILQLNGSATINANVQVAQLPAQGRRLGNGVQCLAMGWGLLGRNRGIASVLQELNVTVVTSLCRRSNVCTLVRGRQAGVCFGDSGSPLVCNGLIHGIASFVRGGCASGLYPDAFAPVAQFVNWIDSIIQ
Assay: human leukocyte elastase inhibitory activity (MeOSuc-Ala-Ala-Pro-Val-pNA substrate, absorbance progress curves)
Assay type: biochemical
Description: The test compound (inhibitor) is dissolved in DMSO in a vial to produce an inhibitor stock solution which has a concentration in the range of 200-1000 μM. The inhibitor stock solution is diluted (1:4, 1:16 and 1:64) into assay vials (vials 1, 2 and 3 respectively) containing 2.4 mL of buffer solution (50 mM N-[2-hydroxyethyl]piperazine-N'-[2-ethanesulfonic acid]/NaOH, 500 mM NaCl, pH 7.8 at 25° C.) and DMSO is added so that the total volume in each vial is 3.2 mL. 70 μL, 50 μL, 35 μL and 25 μL of inhibitor from assay vial 1 is placed into the first four wells of a 96-well microtiter plate and each well is made up to 90 μL total volume with the addition of a 25% DMSO/buffer solution. The inhibitor from assay vials 2 and 3 is processed in a similar manner and placed in wells 5-12 respectively to afford a total of 12 different inhibitor concentrations. Four wells (wells 13-16) containing 90 μL of the 25% DMSO/buffer solution but no inhibitor are also run simultaneously with the inhibited wells as a control. 150 μL of substrate solution (prepared by the addition of 500 μL of the human leukocyte elastase (HLE) substrate MeOSuc-Ala-Ala-Pro-Val-pNA (18.7 mM in DMSO) to 19.5 mL of buffer solution) is then added simultaneously into each of the 16 wells and the solution in each well was thoroughly mixed.
The 96-well microtiter plate is placed into a Microplate Reader #89815A spectrophotometer and 110 μL of the enzyme solution (prepared as follows: a mixture of 20 mL of buffer solution and 20 mg of bovine serum albumen is gently vortexed in a scintillation vial and 5 μL HLE stock solution (1 mg/mL dissolved in deionized water) is added) is added simultaneously to each of the 16 wells. Each of the solutions in the wells is throughly mixed and then the time-dependent absorbance data is collected at an absorbance of 410 nm until the assay is complete. It should be noted that although this assay method can be done manually, it is preferred to perform the assay robotically using a Hewlett Packard MicroAssay System Robot.
A plot of the absorbance versus time data thus obtained affords progress curves the final slope of which is equal to the final steady-state velocities (VF). Using the program ENZFITTER (Elsevier software), the progress curves for the four control assays ([I]=0) are fit by linear regression to yield the enzyme reaction velocity values in the absences of inhibitor (Vo) which are averaged to produce a single fixed value. The inhibition constant Ki (nM) is then obtained from a plot of [formula] which affords a linear plot wherein: [formula] and [S] is the concentration of the substrate and Km is the Michaelis constant.
Table V summarizes the results obtained from the testing of representative compounds of the invention for human leukocyte elastase inhibitory activity.

## CCOP(=O)(OCC)OCN1C(=O)C(C(C)C)N(C)S1(=O)=O (centres unmarked) [2(i), 2-(diethoxyphosphinyloxymethyl)-4-isopropyl-5-methyl-1,2,5-thiadiazolidin-3-one 1,1-dioxide]
  Ki: 0.68 µM

## CCCC1C(=O)N(COP(=O)(OCC)OCC)S(=O)(=O)N1C (centres unmarked) [1(i), 2-(diethoxyphosphinyloxymethyl)-4-propyl-5-methyl-1,2,5-thiadiazolidin-3-one 1,1-dioxide]
  Ki: 0.002 µM

## CCOP(=O)(OCC)OCN1C(=O)C2CCCCN2S1(=O)=O (centres unmarked) [17(f), 2-(diethoxyphosphinyloxymethyl)-1,2,5-thiadiazolo[2,3-a]3,3a,4,5,6,7-hexahydropyridine-3-one 1,1-dioxide]
  Ki: 0.5 µM

## CCCC1NS(=O)(=O)N(COP(=O)(OCC)OCC)C1=O (centres unmarked) [3(f), 2-(diethoxyphosphinyloxymethyl)-4-propyl-1,2,5-thiadiazolidin-3-one 1,1-dioxide]
  Ki: 0.025 µM

## CC(C)CCC1C(=O)N(COP(=O)(OCc2ccccc2)OCc2ccccc2)S(=O)(=O)N1C (centres unmarked) [4(j), 2-(dibenzyloxyphosphinyloxymethyl)-4-(3-methylbutyl)-5-methyl-1,2,5-thiadiazolidin-3-one 1,1-dioxide]
Human leukocyte elastase, substrate MeOSuc-Ala-Ala-Pro-Val-pNA, pH 7.8, 25° C. buffer, read-out: Ki
  Ki: 0.0015 µM
